Laboratory results taken from patent US12600725B2 (Memorial Sloan-Kettering Cancer Center, priority 2013, dated 2026).
“And” between values parts separate entries of the source, which are not always exact repeats. Equal entries are not always repeated. Where two headings read alike, the source gives them in different places.

Key:
Grp94 [1] = target: T1, Grp94 (Canis lupus familiaris, UniProt P41148); conditions: read-out: Grp94; FP competition, 6 nM Cy3B-GM, 10 nM protein, 4° C. for 24 h
Hsp90α [2] = target: T2, Hsp90α (Homo sapiens, UniProt P07900); conditions: read-out: Hsp90α; FP competition, 6 nM Cy3B-GM, 10 nM protein, 4° C. for 24 h
Grp94 [3] = target: T1, Grp94; conditions: read-out: Grp94 IC50; 43a as FP probe
Trap-1 [4] = target: T3, Trap-1 (Homo sapiens, UniProt Q12931)
T3 sequence (Q12931 60-704): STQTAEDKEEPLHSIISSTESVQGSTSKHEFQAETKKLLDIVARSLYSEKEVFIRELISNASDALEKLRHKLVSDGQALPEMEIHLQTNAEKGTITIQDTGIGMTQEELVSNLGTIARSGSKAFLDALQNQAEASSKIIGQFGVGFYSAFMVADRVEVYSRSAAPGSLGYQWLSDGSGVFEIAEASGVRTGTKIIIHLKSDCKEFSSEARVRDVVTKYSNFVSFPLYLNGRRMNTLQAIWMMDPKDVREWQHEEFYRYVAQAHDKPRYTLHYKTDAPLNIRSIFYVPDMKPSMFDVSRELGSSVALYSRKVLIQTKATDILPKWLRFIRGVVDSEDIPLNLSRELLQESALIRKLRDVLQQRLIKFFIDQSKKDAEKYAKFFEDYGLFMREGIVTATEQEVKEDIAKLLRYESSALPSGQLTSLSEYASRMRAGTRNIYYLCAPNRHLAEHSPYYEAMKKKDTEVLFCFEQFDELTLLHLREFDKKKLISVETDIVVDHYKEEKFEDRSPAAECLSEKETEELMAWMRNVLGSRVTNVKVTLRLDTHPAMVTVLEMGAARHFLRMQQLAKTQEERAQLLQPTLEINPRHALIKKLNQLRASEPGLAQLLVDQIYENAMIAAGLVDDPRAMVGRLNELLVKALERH

Hsp90β = Hsp90β (Homo sapiens, UniProt P08238)
Hsp90β, sequence (P08238 whole entry): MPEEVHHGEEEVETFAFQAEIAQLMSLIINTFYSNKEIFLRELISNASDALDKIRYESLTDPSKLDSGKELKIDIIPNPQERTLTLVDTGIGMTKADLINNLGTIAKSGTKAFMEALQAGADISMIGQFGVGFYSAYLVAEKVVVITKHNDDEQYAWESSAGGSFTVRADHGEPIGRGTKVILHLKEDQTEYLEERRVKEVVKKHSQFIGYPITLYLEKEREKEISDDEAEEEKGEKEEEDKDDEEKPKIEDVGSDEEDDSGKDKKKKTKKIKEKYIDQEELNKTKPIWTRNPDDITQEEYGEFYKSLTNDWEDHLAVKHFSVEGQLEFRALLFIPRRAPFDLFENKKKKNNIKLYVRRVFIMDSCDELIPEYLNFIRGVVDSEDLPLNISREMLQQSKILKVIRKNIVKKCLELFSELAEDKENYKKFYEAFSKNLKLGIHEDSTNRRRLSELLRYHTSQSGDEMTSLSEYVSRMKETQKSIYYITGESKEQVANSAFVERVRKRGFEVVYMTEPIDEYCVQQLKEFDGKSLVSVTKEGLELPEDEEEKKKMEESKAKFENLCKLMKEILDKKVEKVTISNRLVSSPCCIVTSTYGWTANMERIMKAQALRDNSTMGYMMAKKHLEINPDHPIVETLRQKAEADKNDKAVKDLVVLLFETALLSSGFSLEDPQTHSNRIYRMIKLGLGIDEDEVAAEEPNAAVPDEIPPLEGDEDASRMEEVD

Trap-1 [5] = target: T3, Trap-1; conditions: read-out: TRAP-1
Hsp90α [6] = target: T2, Hsp90α; assay: biochemical; conditions: FP competition, 6 nM Cy3B-GM, 10 nM protein, 4° C. for 24 h
MDA-MB-468 cells = assay: Growth inhibition assay (Alamar blue); type: cell-based; conditions: Homo sapiens
Procedure: We evaluated the antiproliferative effects of inhibitors using the dye Alamar blue. This reagent offers a rapid objective measure of cell viability in cell culture, and it uses the indicator dye resazurin to measure the metabolic capacity of cells, an indicator of cell viability. Briefly, MDA-MB-468 cells were plated on Costar 96-well plates at 1500 cells/well. Cells were allowed to incubate for 24 h at 37° C. before drug treatment. Drugs were added in triplicate at the indicated concentrations, and the plate was incubated for 72 h. Alamar Blue (440 μM) was added, and the plate read 6 h later using Softmax Pro 6 software (Fluorescence intensity mode, excitation 530 nm, emission 580 nm, with 560 nm dichroic mirror). Results were analyzed using GraphPad Prism 5. The percentage cell growth inhibition was calculated by comparing fluorescence readings obtained from treated versus control cells, accounting for initial cell population (time zero).

T1 sequence (P41148 with tags, fused parts or gaps DELINS287-327GGGG): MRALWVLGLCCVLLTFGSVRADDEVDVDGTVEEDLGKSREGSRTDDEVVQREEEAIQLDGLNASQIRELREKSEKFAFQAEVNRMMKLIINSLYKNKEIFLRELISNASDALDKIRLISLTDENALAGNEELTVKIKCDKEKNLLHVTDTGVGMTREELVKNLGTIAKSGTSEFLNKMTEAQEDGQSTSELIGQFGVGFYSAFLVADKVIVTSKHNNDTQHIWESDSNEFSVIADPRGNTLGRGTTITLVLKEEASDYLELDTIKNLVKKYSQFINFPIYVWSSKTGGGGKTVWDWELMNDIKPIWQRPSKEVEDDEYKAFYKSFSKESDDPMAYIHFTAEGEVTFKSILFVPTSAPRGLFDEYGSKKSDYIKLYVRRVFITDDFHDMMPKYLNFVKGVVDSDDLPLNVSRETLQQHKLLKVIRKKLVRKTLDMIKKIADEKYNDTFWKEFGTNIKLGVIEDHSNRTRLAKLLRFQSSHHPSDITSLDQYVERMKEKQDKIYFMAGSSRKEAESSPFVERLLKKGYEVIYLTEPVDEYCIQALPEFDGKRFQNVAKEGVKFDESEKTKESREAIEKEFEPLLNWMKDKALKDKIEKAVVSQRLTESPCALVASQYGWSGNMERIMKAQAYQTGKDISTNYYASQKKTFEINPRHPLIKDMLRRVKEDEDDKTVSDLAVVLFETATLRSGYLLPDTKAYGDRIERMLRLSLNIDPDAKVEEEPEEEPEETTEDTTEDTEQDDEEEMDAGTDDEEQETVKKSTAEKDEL

Row | SMILES | IC50 (Grp94 [1]) | IC50 (Hsp90α [6]) [nM] | IC50 (MDA-MB-468 cells) [nM] | also measured
1 | C=CCNC1=C2C[C@@H](C)C[C@H](OC)[C@H](O)[C@@H](C)/C=C(\C)[C@H](OC(N)=O)[C@@H](OC)/C=C\C=C(/C)C(=O)NC(=CC1=O)C2=O [Compound 17-AAG] | – | – | – | IC50 (Grp94 [3]): 31 nM; loss of affinity for Trap-1 (Trap-1 [4]; Hsp90 vs Trap-1): ~2 log; IC50 (Trap-1 [4]; read-out: Trap-1 IC50, 43a as FP probe): 1500 nM; IC50 (Trap-1 [4]; read-out: binding affinity (FP competition), probe 115a): 1500 nM
2 | CC(C)NCCCn1c(Sc2cc(Cl)cc(Cl)c2)nc2c(N)ncnc21 [WS-13, 8-((3,5-Dichlorophenyl)thio)-9-(3-(isopropylamino)propyl)-9H-purin-6-amine] | 220 ± 80 nM | – | – | IC50 (Hsp90β; read-out: Hsp90β, FP competition, 6 nM Cy3B-GM, 10 nM protein, 4° C. for 24 h): 41800 ± 1300 nM; IC50 (Hsp90α [2]): 27300 ± 3500 nM
3 | CC(C)c1cc(-c2n[nH]c(=O)n2-c2ccc3c(ccn3C)c2)c(O)cc1O [STA-9090] | – | – | – | IC50 (Grp94 [3]): 10 nM
4 | C#CCCCn1c(Sc2cc(C)cc(C)c2)nc2c(N)ncnc21 [PU-H4] | 11500 ± 920 nM | > 300000 | – | IC50 (Trap-1 [5]): 158000 ± 9700 nM; IC50 (Hsp90β): > 300000 nM
5 | CCNC(=O)c1noc(-c2cc(C(C)C)c(O)cc2O)c1-c1ccc(CN2CCOCC2)cc1 [NVP-AUY922] | – | – | – | decrease in binding efficacy for Trap-1 (Trap-1 [4]; relative to Hsp90): 2 fold
6 | C#CCCCn1c(Sc2cc(Cl)ccc2Cl)nc2c(N)ncnc21 [PU-H42] | 530 ± 100 nM | – | – | IC50 (Trap-1 [5]): 5100 ± 4200 nM; IC50 (Hsp90β): > 100000 nM; IC50 (Hsp90α [2]): 60400 ± 1600 nM
7 | C#Cc1cc(Cl)cc(Sc2nc3c(N)ncnc3n2CCCNC(C)C)c1 [HJP-VI-18, 8-((3-chloro-5-ethynylphenyl)thio)-9-(3-(isopropylamino)propyl)-9H-purin-6-amine] | 900 nM | 152000 | 122 | –
8 | CC(C)CNCCCn1c(Sc2cc(Cl)cc(I)c2)nc2c(N)ncnc21 [HJP-VI-4, 8-((3-chloro-5-iodophenyl)thio)-9-(3-(isobutylamino)propyl)-9H-purin-6-amine] | 290 nM | 41800 | 212 | –
9 | C#CCCCn1c(Sc2cc(Cl)c(Cl)cc2Cl)nc2c(N)ncnc21 [PU-H51] | 170 ± 110 nM | > 200000 | – | IC50 (Trap-1 [5]): 78400 ± 8900 nM; IC50 (Hsp90β): > 200000 nM
10 | C=C(C)c1cc(Cl)cc(Sc2nc3c(N)ncnc3n2CCCNC(C)C)c1 [HJP-VI-12, 8-((3-chloro-5-(prop-1-en-2-yl)phenyl)thio)-9-(3-(isopropylamino)propyl)-9H-purin-6-amine] | 210 nM | 20000 | 63 | –
11 | CC(C)NCCCn1c(Sc2ccc(Cl)cc2I)nc2c(N)ncnc21 [HJP-VI-36, 8-((4-chloro-2-iodophenyl)thio)-9-(3-(isopropylamino)propyl)-9H-purin-6-amine] | 210 nM | 3400 | 5850 | –
12 | C#CCCCn1c(Sc2cc(C)ccc2C)nc2c(N)ncnc21 [PU-H27] | – | > 300000 | – | IC50 (Trap-1 [5]): 204000 ± 11000 nM; IC50 (Hsp90β): > 300000 nM
13 | CC(C)NCCCn1c(Sc2cc(Cl)cc(-c3ccoc3)c2)nc2c(N)ncnc21 [HJP-VI-39, 8-((3-chloro-5-(furan-3-yl)phenyl)thio)-9-(3-(isopropylamino)propyl)-9H-purin-6-amine] | 280 nM | 21300 | 166 | –

Further lines, with some results ahead:

Row | IC50 (Grp94 [1]) | IC50 (Hsp90α [6]) [nM] | IC50 (MDA-MB-468 cells) [nM] | SMILES | also measured
14 | 410 nM and 407 nM | – | – | CC(C)NCCCn1c(Sc2ccc(Cl)cc2Cl)nc2c(N)ncnc21 [WS-12, 8-((2,4-Dichlorophenyl)thio)-9-(3-(isopropylamino)propyl)-9H-purin-6-amine] | IC50 (Hsp90α [2]): 20300 ± 1200 nM
15 | 186 nM | > 50000 | 164 | CC(C)(C)CNCCCn1c(Sc2cc(Cl)cc(Cl)c2)nc2c(N)nc(F)nc21 [HJP-VI-85, 8-((3,5-dichlorophenyl)thio)-2-fluoro-9-(3-(neopentylamino)propyl)-9H-purin-6-amine] | –
16 | 345 nM | 40400 | 830 | C[C@H](NCCCn1c(Sc2cc(Cl)cc(Cl)c2)nc2c(N)ncnc21)C1CC1 [SO-III-127B, (S)-9-(3-((1-cyclopropylethyl)amino)propyl)-8-((3,5-dichlorophenyl)thio)-9H-purin-6-amine] | –
17 | 214 nM | 18600 | 580 | C/C=C\c1cc(Cl)cc(Sc2nc3c(N)ncnc3n2CCCNC(C)C)c1 [HJP-VI-78, (Z)-8-((3-chloro-5-(prop-1-en-1-yl)phenyl)thio)-9-(3-(isopropylamino)propyl)-9H-purin-6-amine] | –
